Experiment [1] has as its target T1, Melanocyte-stimulating hormone receptor (Homo sapiens, UniProt Q01726). In words: Binding affinity in competition with [125I]NDP-MSH on recombinant melanocortin 1 receptor.
Another experiment deals with Melanocortin receptor 4 (Homo sapiens, UniProt P32245). In words: Binding affinity in competition with [125I]NDP-MSH on recombinant melanocortin 4 receptor.
In another experiment the target is Melanocortin receptor 3 (Homo sapiens, UniProt P41968). Description: Binding affinity in competition with [125I]NDP-MSH on recombinant melanocortin 3 receptor.
Melanocortin receptor 3, sequence (P41968 whole entry): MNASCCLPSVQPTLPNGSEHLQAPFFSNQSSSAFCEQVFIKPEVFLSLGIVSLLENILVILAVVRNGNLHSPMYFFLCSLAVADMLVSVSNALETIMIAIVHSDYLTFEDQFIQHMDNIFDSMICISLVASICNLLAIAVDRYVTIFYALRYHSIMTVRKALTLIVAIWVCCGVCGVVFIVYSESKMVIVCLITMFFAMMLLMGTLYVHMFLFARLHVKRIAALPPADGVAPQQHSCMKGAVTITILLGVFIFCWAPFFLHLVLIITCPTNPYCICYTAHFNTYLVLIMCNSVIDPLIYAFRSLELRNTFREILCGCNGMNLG
Experiment [2] has as its target T2, Melanocortin receptor 5 (Homo sapiens, UniProt P33032). Description: Binding affinity in competition with [125I]NDP-MSH on recombinant melanocortin 5 receptor.
The target in experiment [3] is T2, Melanocortin receptor 5. In words: Tested for its binding affinity in competition with [125I]NDP-MSH on recombinant Melanocortin 5 receptor; nb = no binding.
The target of experiment [4] is T1, Melanocyte-stimulating hormone receptor. Description: Tested for its binding affinity in competition with [125I]NDP-MSH on recombinant human Melanocortin 1 receptor; nb = no binding.

For 26 molecules, Ki results are on record in ChEMBL document CHEMBL1135876, “N-alkylaminoacids and their derivatives interact with melanocortin receptors” (Bioorg Med Chem Lett, 2002).

pKi: −log10 of the molar value.

What is called pKi is the Ki on a negative log10 scale, so that one unit is a factor of ten.

T2 sequence (P33032 whole entry): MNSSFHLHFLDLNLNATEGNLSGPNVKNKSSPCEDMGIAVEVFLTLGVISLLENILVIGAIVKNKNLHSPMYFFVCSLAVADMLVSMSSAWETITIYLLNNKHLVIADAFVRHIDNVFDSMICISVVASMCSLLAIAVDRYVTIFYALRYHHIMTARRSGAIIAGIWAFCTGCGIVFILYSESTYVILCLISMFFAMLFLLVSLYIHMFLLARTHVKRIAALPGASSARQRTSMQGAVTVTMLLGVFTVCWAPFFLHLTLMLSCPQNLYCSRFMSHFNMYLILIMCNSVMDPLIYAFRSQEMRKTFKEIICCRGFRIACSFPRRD
T1 sequence (Q01726 whole entry): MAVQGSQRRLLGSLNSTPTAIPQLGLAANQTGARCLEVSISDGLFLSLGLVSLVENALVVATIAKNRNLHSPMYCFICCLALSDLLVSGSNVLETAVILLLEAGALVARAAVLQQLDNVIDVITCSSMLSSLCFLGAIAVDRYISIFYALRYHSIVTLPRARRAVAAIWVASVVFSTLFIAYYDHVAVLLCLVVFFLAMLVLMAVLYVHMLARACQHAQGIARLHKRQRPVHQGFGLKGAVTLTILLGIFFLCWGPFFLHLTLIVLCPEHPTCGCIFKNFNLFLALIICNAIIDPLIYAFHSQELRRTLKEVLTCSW
Melanocortin receptor 4, sequence (P32245 whole entry): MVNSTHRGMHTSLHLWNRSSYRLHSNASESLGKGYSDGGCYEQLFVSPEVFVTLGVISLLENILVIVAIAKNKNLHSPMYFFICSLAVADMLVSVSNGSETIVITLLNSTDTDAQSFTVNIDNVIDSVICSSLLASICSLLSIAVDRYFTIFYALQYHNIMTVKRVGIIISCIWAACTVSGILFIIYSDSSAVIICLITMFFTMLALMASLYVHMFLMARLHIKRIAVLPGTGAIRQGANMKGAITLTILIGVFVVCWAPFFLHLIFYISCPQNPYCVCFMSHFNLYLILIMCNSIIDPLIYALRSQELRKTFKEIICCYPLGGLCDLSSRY

As for `NC(N)=NCCCC(NCc1c[nH]c2ccccc12)C(=O)O` (centres undefined), the negative-log Ki (pKi) (in experiment [1]; at Melanocortin receptor 4; at Melanocortin receptor 3; at Melanocortin receptor 5 [2]) was less than 6.00 throughout.

As for `N=C(N)NCCC[C@H](NCc1ccc2ccccc2c1)C(=O)Nc1cccc2ccccc12`, the pKi in experiment [1] is 5.89; at Melanocortin receptor 4 it was 5.17; at Melanocortin receptor 3 it was 5.19; on Melanocortin receptor 5 [2] it was 5.06.

Turning to `NC(N)=NCCCNC(=O)[C@@H]1C[C@H](O)CN1Cc1ccc2ccccc2c1`, the pKi in experiment [1] is 5.54; at Melanocortin receptor 4 it was 3.55; on Melanocortin receptor 3, 4.09; on Melanocortin receptor 5 [2] it was 3.66.

Consider `C=CCOC(=O)[C@H](CCCNC(=N)N)NCc1ccc2ccccc2c1`, for which the pKi in experiment [1] is 5.23; on Melanocortin receptor 4 it was 4.82; at Melanocortin receptor 3, 4.55; on Melanocortin receptor 5 [2], 4.82.

As to `N=C(N)NCCC[C@H](NCc1ccc2ccccc2c1)C(=O)Nc1ccc2ccccc2c1`, the pKi in experiment [1] is 5.54; at Melanocortin receptor 4, 4.85; on Melanocortin receptor 3, 4.85; on Melanocortin receptor 5 [2], 5.18.

With `NC(N)=NCCC[C@@H](NCc1c[nH]c2ccccc12)C(=O)O`, the pKi (in experiment [1]; at Melanocortin receptor 4; at Melanocortin receptor 3; on Melanocortin receptor 5 [2]) was less than 6.00 throughout.

As for `COc1ccc(CN[C@H](CCCNC(=N)N)C(=O)O)c(Cl)c1OC`, the pKi (in experiment [1]; at Melanocortin receptor 4; on Melanocortin receptor 3; at Melanocortin receptor 5 [2]) was less than 6.00 each time.

For `COc1ccc(CN[C@H](CCCNC(=N)N)C(=O)O)cc1OC`, the pKi (in experiment [1]; on Melanocortin receptor 4; at Melanocortin receptor 3; at Melanocortin receptor 5 [2]) was less than 6.00 each time.

`COc1ccc(CNC(CCCN=C(N)N)C(=O)O)cc1OC` (centres undefined): the pKi (in experiment [1]; on Melanocortin receptor 4; at Melanocortin receptor 3; on Melanocortin receptor 5 [2]) was less than 6.00 throughout.

In the case of `O=C(NCc1ccc2ccccc2c1)[C@H]1CCCN1CCc1c[nH]c2ccccc12`, the Ki result (at Melanocortin receptor 5 [3]; in experiment [4]) was “Not Active” throughout. The pKi is 3.78 at Melanocortin receptor 4 and 3.12 on Melanocortin receptor 3.

On to `N=C(N)NCCC[C@@H](NCc1ccc2ccccc2c1)C(N)=O`, for which the pKi in experiment [1] is less than 3.00; on Melanocortin receptor 4, less than 3.00; at Melanocortin receptor 3, less than 3.00; at Melanocortin receptor 5 [2] it was 3.90.

On to `N=C(N)NCCC[C@H](NCc1c[nH]c2ccccc12)C(=O)N[C@@H](Cc1c[nH]c2ccccc12)C(N)=O`, for which the pKi in experiment [1] is less than 3.00; at Melanocortin receptor 4, 3.69; on Melanocortin receptor 3, less than 3.00; on Melanocortin receptor 5 [2] it was 3.74.

With `N=C(N)NCCC[C@H](NCc1c[nH]c2ccccc12)C(N)=O`, the pKi (in experiment [1]; on Melanocortin receptor 4; at Melanocortin receptor 3; at Melanocortin receptor 5 [2]) was less than 6.00 in each case.

As to `N=C(N)NCCC[C@H](NCc1ccc2ccccc2c1)C(N)=O`, the pKi (in experiment [1]; on Melanocortin receptor 4; at Melanocortin receptor 3; at Melanocortin receptor 5 [2]) was less than 6.00 each time.

Regarding `N=C(N)NCCCNC(=O)[C@H](CCCN=C(N)N)NCc1ccc2ccccc2c1`, the Ki entry on Melanocortin receptor 5 [3] is recorded as “Not Active”. Also, the pKi in experiment [1] is 5.35; on Melanocortin receptor 4, 4.52; at Melanocortin receptor 3, 5.32.

With `NC(=O)[C@H](Cc1ccc2ccccc2c1)NCc1c[nH]c2ccccc12`, the pKi in experiment [1] was 4.59; at Melanocortin receptor 4, less than 3.00; on Melanocortin receptor 3 it was less than 3.00; on Melanocortin receptor 5 [2], 4.22.

As for `N=C(N)NCCC[C@@H](NCc1ccc2ccccc2c1)C(=O)N[C@@H](Cc1c[nH]c2ccccc12)C(N)=O`, the pKi is 4.49 in experiment [1], 4.25 on Melanocortin receptor 4, 3.83 on Melanocortin receptor 3 and 4.25 at Melanocortin receptor 5 [2].

With `N=C(N)NCCC[C@H](NCC1CCc2ccccc2C1)C(N)=O` (some centres undefined), the pKi was less than 3.00 in experiment [1], 3.87 on Melanocortin receptor 4, 3.81 at Melanocortin receptor 3 and 3.89 at Melanocortin receptor 5 [2].

As to `N=C(N)NCCC[C@H](NCc1ccc2ccccc2c1)C(=O)N[C@@H](Cc1c[nH]c2ccccc12)C(N)=O`, the pKi in experiment [1] is 4.54; on Melanocortin receptor 4 it was 3.98; at Melanocortin receptor 3 it was 3.97; at Melanocortin receptor 5 [2] it was 4.13.

For `N=C(N)NCCC[C@@H](NCc1c[nH]c2ccccc12)C(N)=O`, the pKi (in experiment [1]; on Melanocortin receptor 4; on Melanocortin receptor 3; at Melanocortin receptor 5 [2]) was less than 6.00 each time.

On to `COc1ccc(CN[C@@H](CCCNC(=N)N)C(N)=O)c(Cl)c1OC`, for which the pKi (in experiment [1]; on Melanocortin receptor 4; on Melanocortin receptor 3; at Melanocortin receptor 5 [2]) was less than 6.00 throughout.

Consider `O=C(NCCc1c[nH]cn1)[C@@H]1C[C@H](O)CN1Cc1ccc2ccccc2c1`, for which, in experiment [4], the Ki entry is given as “Not Active”. For the same molecule, the pKi is 3.82 at Melanocortin receptor 4, 3.79 at Melanocortin receptor 3 and 4.30 at Melanocortin receptor 5 [2].

As for `NC(=O)[C@@H](Cc1c[nH]c2ccccc12)NCc1ccc2ccccc2c1`, the negative logarithm of the Ki (pKi) is 4.82 in experiment [1], 4.19 on Melanocortin receptor 4, 4.28 at Melanocortin receptor 3 and 4.43 at Melanocortin receptor 5 [2].

Regarding `NC(=O)[C@@H](Cc1ccc2ccccc2c1)NCc1c[nH]c2ccccc12`, the pKi in experiment [1] is 4.13; on Melanocortin receptor 4, less than 3.00; on Melanocortin receptor 3 it was less than 3.00; at Melanocortin receptor 5 [2], 4.02.

On to `COc1ccc(CN[C@@H](CCCN=C(N)N)C(N)=O)cc1OC`, for which the pKi (in experiment [1]; at Melanocortin receptor 4; on Melanocortin receptor 3; on Melanocortin receptor 5 [2]) was less than 6.00 each time.

For `NC(=O)[C@H](Cc1c[nH]c2ccccc12)NCc1ccc2ccccc2c1`, the pKi is 5.06 in experiment [1], 3.86 on Melanocortin receptor 4, 4.25 on Melanocortin receptor 3 and 4.38 on Melanocortin receptor 5 [2].
